From ChEMBL document CHEMBL2074116, “Functional analysis of rat renal organic anion transporter OAT-K1: bidirectional methotrexate transport in apical membrane” (FEBS Lett, 1999)

T1: Solute carrier organic anion transporter family member 1A3 (Rattus norvegicus, UniProt P70502)
T1 sequence (P70502 whole entry): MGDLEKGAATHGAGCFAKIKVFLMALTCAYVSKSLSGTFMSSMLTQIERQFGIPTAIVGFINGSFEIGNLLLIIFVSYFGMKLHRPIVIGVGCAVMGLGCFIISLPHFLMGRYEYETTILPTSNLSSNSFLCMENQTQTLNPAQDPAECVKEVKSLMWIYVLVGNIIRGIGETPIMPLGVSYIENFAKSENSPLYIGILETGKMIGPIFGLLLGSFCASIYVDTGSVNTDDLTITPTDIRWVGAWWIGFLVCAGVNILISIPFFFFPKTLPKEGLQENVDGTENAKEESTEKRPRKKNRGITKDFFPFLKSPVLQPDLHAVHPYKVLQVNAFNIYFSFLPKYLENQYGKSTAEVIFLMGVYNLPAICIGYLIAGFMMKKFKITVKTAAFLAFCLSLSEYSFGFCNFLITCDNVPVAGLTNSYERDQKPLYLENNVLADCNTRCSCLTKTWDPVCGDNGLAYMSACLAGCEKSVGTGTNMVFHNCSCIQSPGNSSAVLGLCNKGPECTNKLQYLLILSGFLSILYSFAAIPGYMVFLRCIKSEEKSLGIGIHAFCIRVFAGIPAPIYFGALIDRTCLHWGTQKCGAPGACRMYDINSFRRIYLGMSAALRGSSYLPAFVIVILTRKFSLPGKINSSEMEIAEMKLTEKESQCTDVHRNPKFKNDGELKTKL


What was measured:
Assay type in all cases: functional, cell-based
[1] = molecular target: T1, Solute carrier organic anion transporter family member 1A3; test: TP_TRANSPORTER: uptake in Xenopus laevis oocytes; conditions: oocyte
[2] = molecular target: T1, Solute carrier organic anion transporter family member 1A3; test: TP_TRANSPORTER: inhibition of MTX uptake (MTX: 0.01 uM, PAH: 100 uM) in OAT-K1-expressing MDCK cells; conditions: dog
[3] = substrate: CN(Cc1cnc2nc(N)nc(N)c2n1)c1ccc(C(=O)N[C@@H](CCC(=O)O)C(=O)O)cc1; test: TP_TRANSPORTER: uptake in OAT-K1-expressing MDCK cells

Row | Activity [1] | Molecule | Activity [2] | Km [3]
1 | is not a substrate [-] | Nc1ccc(C(=O)NCC(=O)O)cc1 [AMINOHIPPURIC ACID] | inhibitor [(at a rough estimate) 55 % of control] | –
2 | – | Solute carrier organic anion transporter family member 1A3 (Rattus norvegicus) (protein) MGDLEKGAATHGAGCFAKIKVFLMALTCAYVSKSLSGTFMSSMLTQIERQFGIPTAIVGFINGSFEIGNLLLIIFVSYFGMKLHRPIVIGVGCAVMGLGCFIISLPHFLMGRYEYETTILPTSNLSSNSFLCMENQTQTLNPAQDPAECVKEVKSLMWIYVLVGNIIRGIGETPIMPLGVSYIENFAKSENSPLYIGILETGKMIGPIFGLLLGSFCASIYVDTGSVNTDDLTITPTDIRWVGAWWIGFLVCAGVNILISIPFFFFPKTLPKEGLQENVDGTENAKEESTEKRPRKKNRGITKDFFPFLKSPVLQPDLHAVHPYKVLQVNAFNIYFSFLPKYLENQYGKSTAEVIFLMGVYNLPAICIGYLIAGFMMKKFKITVKTAAFLAFCLSLSEYSFGFCNFLITCDNVPVAGLTNSYERDQKPLYLENNVLADCNTRCSCLTKTWDPVCGDNGLAYMSACLAGCEKSVGTGTNMVFHNCSCIQSPGNSSAVLGLCNKGPECTNKLQYLLILSGFLSILYSFAAIPGYMVFLRCIKSEEKSLGIGIHAFCIRVFAGIPAPIYFGALIDRTCLHWGTQKCGAPGACRMYDINSFRRIYLGMSAALRGSSYLPAFVIVILTRKFSLPGKINSSEMEIAEMKLTEKESQCTDVHRNPKFKNDGELKTKL | – | 2.1 µM
